Experimental data from patent publication US12559863B2, “Macrocyclic modulators of disease associated protein misfolding and aggregation” (RESQ BIOTECH, priority 2017, dated 2026).
Where a SMILES comes first, the peptide text is derived from it.

Assays:
[1] = tested on: C. elegans strain CL4176 (human Aβ42); assay: Dot blot analysis of total and oligomeric Aβ in C. elegans CL4176; type: in vivo, Caenorhabditis elegans; details: for accumulation level of total Aβ, CL4176: antibody 6E10; for accumulation level of oligomeric Aβ, CL4176: antibody AB9234
Protocol: CL4176 animals were allowed to lay eggs for 3 h on NGM plates containing either synthetic peptides or 0.26% DMSO. Paralysis was induced upon temperature up-shift and the progeny were exposed to either pure peptides or 0.26% DMSO until 50% of the control population was paralyzed. The animals were then collected and boiled in non-reducing Laemmli buffer. For dot blot analysis, 1-5 μg of protein lysates were spotted onto 0.2 μm nitrocellulose membranes (Bio-Rad, USA) after soaking into TBS pre-heated at 80° C. Immunoblotting was performed using the anti-Aβ antibody 6E10 (recognizes total Aβ) and the anti-amyloid protein, oligomer-specific antibody AB9234 (Merck Millipore, Germany). Actin was used as a loading control. Blots were developed with chemiluminescence by using the Clarity™ Western ECL substrate (Bio-Rad, USA). Quantification of the ratio of each detected protein to actin using the anti-actin antibody sc-1615 (Santa Cruz, Germany), and normalization to control appears next to each representative blot.

Aβ42-GFP = biological target: T1, Aβ42-GFP (Homo sapiens, UniProt P05067); assay: High-throughput sequencing of pSICLOPPS vectors isolated after bacterial sorting for enhanced Aβ42-GFP fluorescence
T1 construct: a chimeric fusion of the human Aβ(1-42) peptide (Aβ42) with GFP; expressed in transfected cells; host or cells: E. coli BL21(DE3)
T1 sequence (P05067 672-713 limits assumed): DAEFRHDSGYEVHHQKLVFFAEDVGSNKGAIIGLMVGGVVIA
Procedure, shortened: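 Peptide inserts recovered from repeatedly sorted high-GFP clones were sequenced on Ion Torrent, excluding stop-codon-containing reads. Sorting used BL21(DE3) cells carrying pETAβ42-GFP plus the tetra-, penta- and hexapeptide pSICLOPPS library. Peptide production was induced with 0.002% L-arabinose and the reporter with 0.1 mM IPTG at OD600 ~0.5, at 37° C.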

C[C@@H]1NC(=O)[C@H](CO)NC(=O)[C@H]([C@@H](C)O)NC(=O)[C@@H]2CCCN2C(=O)[C@H](CO)NC1=O [AβC5-34, cyclo-SASPT] (cyclo(ASPTS))
accumulation level of total Aβ, CL4176 [1]: significant reduction of both Aβ species | accumulation level of oligomeric Aβ, CL4176 [1]: significant reduction of both Aβ species | Reads/Total SASPT-like reads (%) (Aβ42-GFP; Table 2): 97.349% | Reads/Total pentapeptide reads (%) (Aβ42-GFP; Table 2): 0.632% | Reads/Total peptide reads (%) (Aβ42-GFP; Table 2): 0.567% | Number of reads (Aβ42-GFP; Table 2, after second round of sorting): 25673

C[C@@H]1NC(=O)[C@H]([C@@H](C)O)NC(=O)[C@H](CCCNC(=N)N)NC(=O)[C@H](CC(=O)O)NC(=O)[C@H](Cc2ccccc2)NC1=O [AβC5-116, cyclo-TAFDR] (cyclo(AFDRT))
accumulation level of total Aβ, CL4176 [1]: significant reduction of both Aβ species | accumulation level of oligomeric Aβ, CL4176 [1]: significant reduction of both Aβ species | Reads/Total TXXXR reads (%) (Aβ42-GFP; after the second round of bacterial sorting, relative to total TXXXR reads): 0.223% | Reads/Total pentapeptide reads (%) (Aβ42-GFP; after the second round of bacterial sorting, relative to total pentapeptide reads): 0.105% | Reads/Total peptide reads (%) (Aβ42-GFP; after the second round of bacterial sorting, relative to total peptide reads): 0.094% | Number of reads (Aβ42-GFP; high-throughput sequencing of isolated pSICLOPPS-NuX1X2X3-X5 vectors after the second round of bacterial sorting for enhanced Aβ42-GFP fluorescence, selected cyclo-TXXXR pentapeptides): 4,243
